Data reported in patent US20250235423A1, “USES OF AMINO ACID-CHELATED ZINC, INCLUDING IMMUNE REGULATION AND TREATMENT OF AUTOIMMUNE DISEASE” (FAAC Bio Inc., priority 2024, published 2025).

Assays:
CIA rat [1] = assay: Paw volume (average weight percentage of both paws) in collagen-induced arthritis (CIA) animal model; assay type: in vivo, Lewis rats; settings: for Weight percentages of the rats' paws on Day 24 (FIG. 4): Day 24, compared to the untreated CIA rats (p value<0.05); for Weight percentages of the rats' paws over time (FIG. 3): after administration from Day 17, compared to the CIA group
Procedure: (§1) Lewis rats were bred under the condition with a temperature of 21° C. to 25° C., a humidity level of 40% to 70%, and a lighting period of 12 hours (7 a.m. to 7 p.m.). The rats had free access to the feed. All the rats were monitored for at least 6 days to ensure their health to prepare a collagen-induced arthritis (CIA) animal model.
(§2) A collagen emulsion was prepared by evenly mixing collagen and IFA at a volume ratio of 1:1 using a homogenizer in a cold water bath. On Day 1, 200 μL of the collagen emulsion was injected subcutaneously at the base of the rat's tail, followed by a booster injection of 100 μL of the collagen emulsion at a different site on the base of the tail on Day 8. All the rats successfully developed CIA by Day 17 (hereinafter referred to as “CIA rat”).
(§3) As described in Preparation example C, all the rats successfully developed CIA by Day 17. Therefore, the CIA rats were randomly divided into four groups from Day 17 to administer the following solutions until the rats were sacrificed on Day 24, wherein the healthy rats not to induce arthritis were served as the control group: • (1) Control group (five healthy rats): 2 mL of PBS; • (2) CIA group (five CIA rats): 2 mL of PBS; • (3) MTX group (three CIA rats): 1 mg of MTX per kilogram of rat, dissolved in 2 mL of PBS; • (4) CMC-Zn group (five CIA rats): CMC-Zn at a zinc concentration of 0.075 mg, dissolved in 2 mL of PBS; and • (5) Modified CMC-Zn group (five CIA rats): modified CMC-Zn at a zinc concentration of 0.075 mg, dissolved in 2 mL of PBS.
(§4) The rat's paws were observed and their paw volumes were measured on Days 0, 3, 7, 10, 14, 17, 21 and 24. The arthritis severity of rats was evaluated by using the qualitative scoring system of Table 3, and the paw volume was determined by the following approach in accordance with the buoyancy principle of Archimedes' law: adding an appropriate amount of water into a beaker; placing the beaker on a scale and resetting to zero; placing the rat's paw into the water and immersing it to the target depth; and recoding the reading once it had stabilized.

CIA rat [2] = assay: Arthritis severity score in collagen-induced arthritis (CIA) animal model; assay type: in vivo, Lewis rats; design: Arthritis severity score: scale not given here; settings: CIA rats; for Progression of arthritis severity after Day 17: compared to the CIA group
Procedure: as §1, §2, §3, §4

[3] = tested on: mouse bone marrow dendritic cells (BMDCs); assay: Flow cytometry analysis of dendritic cell maturation surface markers on treated BMDCs; assay type: cell-based; settings: for Ability to inhibit dendritic cell maturation: all zinc concentrations, directly proportional to the zinc concentration; for CD11c expression level / CD40 expression level / CD80 expression level / CD83 expression level / CD86 expression level / MHC II expression level: 48 hours
Procedure: Mice were sacrificed with carbon dioxide and immersed in 75% alcohol. After immersing for 3 minutes, the mice were removed from the alcohol and wiped. Then, the mouse limbs were fixed on a Styrofoam board. Next, the entire femur and tibia were collected by carefully cutting off the mouse skin and muscle. A filter (100 μm) was placed in a 3-cm dish and 2 ml of RPMI-1640 medium was added into the dish. Two ends of the femur were cut, and the bone marrow was collected by repeatedly washing the femur with the cell medium using a 26 G syringe until the femur appeared white. The bone marrow in the tibia was also collected by the same method. The filter was scraped by the reverse side of 1 mL tip to break up the cell clumps in the bone marrow and washed with the cell medium in the dish several times. Then, the cell medium in the dish was collected and placed into a tube to centrifuge at 1500 rpm for 3 minutes. After centrifuging, the supernatant was removed and 1 mL of RBC lysis buffer was added into the tube. After standing for 5 minutes, the tube was centrifuged at 1500 rpm for 3 minutes again. After removing the supernatant, a milky-white pellet was obtained. The pellet was re-suspended with the DC medium and the cell number of the suspension thus obtained was counted.
The cell concentration of the suspension was adjusted to 5×10^5 cells per mL. 1 mL of the suspension was added into each well of a 24-well plate. The 24-well plate was incubated at 37.5° C. and 5% CO2 for 2 days. The unattached granulocytes were removed by carefully removing the cell medium, and then, 0.5 mL of DC medium was added into each well of the 24-well plate. After incubating 3 days, the medium in each well was replaced with 0.5 mL of fresh DC medium and continuously incubated for 3 days. The 24-well plate was taken out from the incubator, and the medium in each well was carefully removed. The bottom of each well was gently pipetted with 2 mL of PBS several times. The pipetted PBS was collected into a centrifuge tube to count the number of cells and analyze the expression level of CD11c using flow cytometry.
(§5) After culturing for 48 hours, the cells and their medium in each group were collected to conduct the following analysis, respectively.
The cells obtained from (1-1) were counted and the cell concentration was adjusted with PBS to provide a cell suspension of 1×10^5 cells to 5×10^5 cells per 100 μL. 100 μL of the cell suspension was evenly mixed with 20 μL of FcR Blocking Reagent, and the mixture thus obtained was placed at 4° C. for 10 minutes. Furthermore, the antibodies of CD11c, CD40, CD80, CD83, CD86, MHC II and corresponding isotype control were added into the tubes containing the mixture, respectively. After vortexing for 1 second, the tubes were placed at room temperature in the dark for 15 minutes. Then, 300 μL of PBS was added into each tube, and after vortexing for 1 second, the tubes were centrifuged at 200×g for 5 minutes. The resulting supernatants were removed and the cells were re-suspended with 300 μL of PBS. Finally, the cell suspensions thus obtained were analyzed by flow cytometry, wherein all the cell suspension of each group were kept on ice in the dark until the analysis was conducted.

IL12P70 = assay: ELISA analysis of IL12P70 in the medium of treated BMDCs; assay type: cell-based, mouse; settings: BMDC media, all groups of the substance
Procedure: The secretion level of IL12P70 in immature DCs is very low, whereas mature DCs secret a large amount of IL12P70, allowing it an indicator of DC maturation. In this example, the expression levels of the surface markers (CD11c, CD40, CD83, CD86) on the BMDCs were analyzed using flow cytometry, and the secretion level of IL12p70 in the BMDCs' medium was measured with an ELISA kit, to observe the effects of amino acid-chelated zinc on dendritic cell maturation.
as §5
The media obtained from each group were placed into tubes, respectively, and the tubes were centrifuged (400×g) at 4° C. for 10 minutes to collect the supernatants. The IL12p70 standard was subjected to a serial dilution to provide a standard curve. The standards at various concentrations and the supernatants obtained from each group were added into a 96-well plate pre-coating with IL12p70 antibodies (100 μL per well, in duplicate). […] The absorbance value at 450 nm (OD450) in each well was detected within 3 minutes. Based on the standard curve resulted from the absorbance values of IL12p70 standards at various concentrations, the IL12p70 amounts corresponding to the absorbance values of each group were calculated as shown in Table 2.

[4] = Day 0 (before administration, which starts Day 17)
[5] = Day 17 (start of administration)
[6] = Day 21, administered from Day 17
[7] = Day 24, administered from Day 17
[8] = zinc concentration 3.27 mg/mL (low concentration)
[9] = zinc concentration 6.54 mg/mL (medium concentration)
[10] = zinc concentration 13.08 mg/mL (high concentration)

In the case of `CN(Cc1cnc2nc(N)nc(N)c2n1)c1ccc(C(=O)N[C@@H](CCC(=O)O)C(=O)O)cc1` [MTX, Methotrexate, reference compound], the “Weight percentages of the rats' paws on Day 24 (FIG. 4)” value (CIA rat [1]) is reported as “significantly decreased”, the “Weight percentages of the rats' paws over time (FIG. 3)” value (CIA rat [1]) is reported as “gradually decreased” and the Arthritis severity score (CIA rat [2]; [4]) is reported as 0. For the same molecule, the Arthritis severity score (CIA rat [2]; Day 3 (before administration)) was 0, the Arthritis severity score (CIA rat [2]; Day 7 (before administration)) was 0 and the Arthritis severity score (CIA rat [2]; Day 10 (before administration)) was 0. For the same molecule, the Arthritis severity score (CIA rat [2]; Day 14 (before administration)) was 0.3, the Arthritis severity score (CIA rat [2]; [5]) was 3.7 and the Arthritis severity score (CIA rat [2]; [6]) was 3.7. The Arthritis severity score (CIA rat [2]; [7]) was 3 and the “Progression of arthritis severity after Day 17” value (CIA rat [2]) was “slower progression or even reduction in arthritis severity”.

With glycine-chelated zinc [CMC-Zn] the “Ability to inhibit dendritic cell maturation” value [3] was “demonstrated the ability to inhibit dendritic cell maturation”, the “Expression levels of CD80 and CD86 compared to the groups of zinc sulfate” value ([3]; low and medium concentration) was “significantly decreased” and the “Expression levels of the markers compared to the Immature DC group” value ([3]; low concentration (3.27 mg/mL zinc)) was “even lower”. The CD11c expression level [3, 8] was 88.3, the CD40 expression level [3, 8] was 25 and the CD80 expression level [3, 8] was 39. The CD83 expression level [3, 8] was 16.1, the CD86 expression level [3, 8] was 37.9 and the “MHC II expression level” value [3, 8] was 25. The CD11c expression level [3, 9] was 87.8, the CD40 expression level [3, 9] was 13.1 and the CD80 expression level [3, 9] was 23.7. For the same molecule, the CD83 expression level [3, 9] was 10.3, the CD86 expression level [3, 9] was 23.1 and the “MHC II expression level” value [3, 9] was 14. It also gave a CD11c expression level [3, 10] of 74.1, a CD40 expression level [3, 10] of 6.24 and a CD80 expression level [3, 10] of 26.5. The CD83 expression level [3, 10] was 4.38, the CD86 expression level [3, 10] was 25.4 and the “MHC II expression level” value [3, 10] was 6.41. The “Weight percentages of the rats' paws on Day 24 (FIG. 4)” value (CIA rat [1]) was “significantly decreased”, the “Weight percentages of the rats' paws over time (FIG. 3)” value (CIA rat [1]) was “gradually decreased” and the “IL12P70 in the media” value (IL12P70) was “not detected”. It also gave an Arthritis severity score (CIA rat [2]; [4]) of 0, an Arthritis severity score (CIA rat [2]; Day 3 (before administration)) of 0 and an Arthritis severity score (CIA rat [2]; Day 7 (before administration)) of 0. It also gave an Arthritis severity score (CIA rat [2]; Day 10 (before administration)) of 0, an Arthritis severity score (CIA rat [2]; Day 14 (before administration)) of 0.4 and an Arthritis severity score (CIA rat [2]; [5]) of 3.8. For the same molecule, the Arthritis severity score (CIA rat [2]; [6]) was 4.4, the Arthritis severity score (CIA rat [2]; [7]) was 4.6 and the “Progression of arthritis severity after Day 17” value (CIA rat [2]) was “slower progression or even reduction in arthritis severity”.

For `O=S(=O)([O-])[O-].[Zn+2]` [Zinc sulfate, reference compound], the “Ability to inhibit dendritic cell maturation” value [3] was “demonstrated the ability to inhibit dendritic cell maturation”, the CD11c expression level [3, 8] was 87.2 and the CD40 expression level [3, 8] was 16.1. For the same molecule, the CD80 expression level [3, 8] was 46.7, the CD83 expression level [3, 8] was 12.9 and the CD86 expression level [3, 8] was 49.2. The “MHC II expression level” value [3, 8] was 16.8, the CD11c expression level [3, 9] was 85.4 and the CD40 expression level [3, 9] was 11.2. For the same molecule, the CD80 expression level [3, 9] was 37.2, the CD83 expression level [3, 9] was 10.4 and the CD86 expression level [3, 9] was 41.3. For the same molecule, the “MHC II expression level” value [3, 9] was 11.9, the CD11c expression level [3, 10] was 85.6 and the CD40 expression level [3, 10] was 8.5. For the same molecule, the CD80 expression level [3, 10] was 26.8, the CD83 expression level [3, 10] was 6.68 and the CD86 expression level [3, 10] was 26. For the same molecule, the “MHC II expression level” value [3, 10] was 8.08 and the “IL12P70 in the media” value (IL12P70) was “not detected”.
